Where “and” joins values, the source holds several entries; their conditions need not be identical. Equal values may be shown once. Read-outs that look alike come from different tables or passages of the source.
Assays:
[1] = system: MOR KO, KOR KO and DOR KO mice; experiment: 55°C warm-water tail-withdrawal assay in opioid receptor knock out mice; assay type: in vivo, mouse
[2] = biological target: T1, mMOR (Mus musculus, UniProt P42866); experiment: biochemical
[3] = biological target: T2, DOR (Homo sapiens, UniProt P41143); experiment: cell-based
[4] = biological target: T3, KOR (Homo sapiens, UniProt P41145); experiment: Radioligand binding counter-screen (NIMH PDSP); design: NIMH Psychoactive Drug Screening Program
[5] = biological target: T1, mMOR; experiment: cell-based
[6] = biological target: T2, DOR; experiment: Radioligand binding counter-screen (NIMH PDSP); design: National Institutes of Mental Health Psychoactive Drug Screen Program (service)
[7] = biological target: rKOR (Rattus norvegicus, UniProt P34975); details: BRET, rodent receptors
[8] = biological target: T2, DOR; experiment: cell-based; remark: listed apart in the source
[9] = biological target: T3, KOR; experiment: cell-based
[10] = KOR KO mice, 100 nmol i.c.v. in 50% DMSO, group mean n=8
[11] = KOR KO mice, 100 nmol i.c.v. in 50% DMSO, individual mouse
[12] = KOR KO mice, 100 nmol i.c.v. in 50% DMSO, group mean n=6
[13] = KOR KO mice, 100 nmol i.c.v., 10 min, per mouse
[14] = KOR KO mice, 100 nmol i.c.v., 20 min, per mouse
[15] = KOR KO mice, 100 nmol i.c.v., 30 min, per mouse
[16] = KOR KO mice, 100 nmol i.c.v., 40 min, per mouse
[17] = KOR KO mice, 100 nmol i.c.v., per mouse
[18] = MP1207 30 nmol icv, MP1208 35 nmol icv

T1 sequence (P42866 whole entry): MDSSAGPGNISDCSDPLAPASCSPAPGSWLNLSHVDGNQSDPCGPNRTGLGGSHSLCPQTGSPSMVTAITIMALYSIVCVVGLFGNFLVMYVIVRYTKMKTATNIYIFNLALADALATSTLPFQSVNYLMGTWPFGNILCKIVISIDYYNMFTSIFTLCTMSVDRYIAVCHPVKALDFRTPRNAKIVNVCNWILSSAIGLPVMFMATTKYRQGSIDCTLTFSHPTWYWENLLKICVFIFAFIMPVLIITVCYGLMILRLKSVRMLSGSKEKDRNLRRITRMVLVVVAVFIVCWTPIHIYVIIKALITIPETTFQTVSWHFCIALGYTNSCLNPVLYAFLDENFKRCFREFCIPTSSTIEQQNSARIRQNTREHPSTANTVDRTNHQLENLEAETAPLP
T3 sequence (P41145 whole entry): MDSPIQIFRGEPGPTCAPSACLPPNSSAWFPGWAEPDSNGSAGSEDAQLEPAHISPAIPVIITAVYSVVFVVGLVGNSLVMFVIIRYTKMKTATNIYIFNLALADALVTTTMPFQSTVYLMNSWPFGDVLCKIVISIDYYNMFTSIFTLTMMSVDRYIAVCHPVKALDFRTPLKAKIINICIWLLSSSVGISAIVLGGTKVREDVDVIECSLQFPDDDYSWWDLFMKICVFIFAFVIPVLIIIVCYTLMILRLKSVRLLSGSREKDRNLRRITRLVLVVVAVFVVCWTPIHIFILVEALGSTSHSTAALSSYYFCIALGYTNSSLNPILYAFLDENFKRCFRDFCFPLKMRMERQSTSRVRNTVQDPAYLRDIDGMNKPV
T2 sequence (P41143 whole entry): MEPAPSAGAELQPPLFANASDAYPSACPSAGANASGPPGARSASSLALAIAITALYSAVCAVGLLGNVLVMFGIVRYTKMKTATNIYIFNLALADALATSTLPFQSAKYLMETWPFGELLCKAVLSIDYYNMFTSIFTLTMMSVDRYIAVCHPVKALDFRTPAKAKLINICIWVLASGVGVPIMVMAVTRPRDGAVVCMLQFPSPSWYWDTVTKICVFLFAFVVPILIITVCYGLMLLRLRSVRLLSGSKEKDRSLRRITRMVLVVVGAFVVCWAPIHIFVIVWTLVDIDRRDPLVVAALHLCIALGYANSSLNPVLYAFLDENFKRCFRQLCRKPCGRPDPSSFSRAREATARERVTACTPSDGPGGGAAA
rKOR, sequence (P34975 whole entry): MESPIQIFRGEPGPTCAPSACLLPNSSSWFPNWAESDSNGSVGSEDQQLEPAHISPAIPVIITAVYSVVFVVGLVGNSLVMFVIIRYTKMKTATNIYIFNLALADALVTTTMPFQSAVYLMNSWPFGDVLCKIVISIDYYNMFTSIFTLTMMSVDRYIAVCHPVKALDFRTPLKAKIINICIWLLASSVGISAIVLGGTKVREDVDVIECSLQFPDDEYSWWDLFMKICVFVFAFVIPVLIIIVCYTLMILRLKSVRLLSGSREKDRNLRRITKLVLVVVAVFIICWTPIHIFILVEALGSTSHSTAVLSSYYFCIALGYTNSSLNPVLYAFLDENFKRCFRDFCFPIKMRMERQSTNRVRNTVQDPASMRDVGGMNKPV

Compound: NCc1cccc(C(=O)N[C@@H]2CCC3C4Cc5ccc(O)c6c5[C@@]3(CCN4CC3CC3)C2O6)c1 (stereo partly drawn) [MP1207, 3-(Aminomethyl)-N-((7R,12bS)−3-(cyclopropylmethyl)−9-hydroxy-2,3,4,4a,5,6,7,7a-octahydro-1H-4,12-methanobenzofuro[3,2-e]isoquinolin-7-yl)benzamide]
- %A-50 min [1, 10]: 20.3588%
- tail-withdrawal latency, 50 min [1, 10]: 4.2125 s
- %A-50 min [1, 11]: 11.28% and 27.21% and 10.07% and 32.33% and 0% and 6.06%
- tail-withdrawal latency, 50 min [1, 11]: 3.2 s and 5.1 s and 2.5 s and 6 s and 1.3 s and 2.6 s
- %A-60 min [1, 10]: 11.2062%
- tail-withdrawal latency, 60 min [1, 10]: 3.0875 s
- %A-60 min [1, 11]: 3.76% and 12.5% and 6.47% and 0.75% and 6.25% and 1.52%
- tail-withdrawal latency, 60 min [1, 11]: 2.2 s and 3.1 s and 2 s and 1.8 s and 3 s
- %A-70 min [1, 10]: 9.87%
- tail-withdrawal latency, 70 min [1, 10]: 2.85 s
- %A-70 min [1, 11]: 5.26% and 19.85% and 3.6% and 7.52% and 0% and 10.61%
- tail-withdrawal latency, 70 min [1, 11]: 2.4 s and 4.1 s and 1.6 s and 2.7 s and 1.8 s and 3.2 s
- %A-80 min [1, 10]: 8.631%
- tail-withdrawal latency, 80 min [1, 10]: 2.725 s
- %A-80 min [1, 11]: 1.5% and 30.88% and 2.16% and 12.78% and 3.91% and 8.33%
- tail-withdrawal latency, 80 min [1, 11]: 1.9 s and 5.6 s and 1.4 s and 3.4 s and 2.7 s and 2.9 s
- %A-90 min [1, 10]: 1.379%
- tail-withdrawal latency, 90 min [1, 10]: 1.7125 s
- %A-90 min [1, 11]: 0% and 0.74% and 0.72% and 0.78% and 0.76%
- tail-withdrawal latency, 90 min [1, 11]: 1.5 s and 1.2 s and 1.6 s and 2.3 s and 1.9 s
- %A-100 min [1, 12]: 1.217%
- tail-withdrawal latency, 100 min [1, 12]: 1.55 s
- %A-100 min [1, 11]: 0.75% and 1.47% and 2.16% and 0%
- tail-withdrawal latency, 100 min [1, 11]: 1.8 s and 1.6 s and 1.4 s and 1.5 s
- %A-110 min [1, 12]: 0.365%
- tail-withdrawal latency, 110 min [1, 12]: 1.467 s
- %A-110 min [1, 11]: 0% and 0.74% and 0.72%
- tail-withdrawal latency, 110 min [1, 11]: 1.7 s and 1.5 s and 1.2 s
- %A-10 min [1, 13]: 100% and 55.47%
- tail-withdrawal latency, 10 min [1, 13]: 15 s and 8.9 s
- %A-20 min [1, 14]: 100%
- tail-withdrawal latency, 20 min [1, 14]: 15 s
- %A-30 min [1, 15]: 38.69% and 61.31%
- tail-withdrawal latency, 30 min [1, 15]: 6.6 s and 9.7 s
- %A-40 min [1, 16]: 31.39% and 32.85%
- tail-withdrawal latency, 40 min [1, 16]: 5.6 s and 5.8 s
- %A-50 min [1, 17]: 45.26% and 30.66%
- tail-withdrawal latency, 50 min [1, 17]: 7.5 s and 5.5 s
- %A-60 min [1, 17]: 13.14% and 45.26%
- tail-withdrawal latency, 60 min [1, 17]: 3.1 s and 7.5 s
- %A-70 min [1, 17]: 19.71% and 12.41%
- tail-withdrawal latency, 70 min [1, 17]: 4 s and 3 s
- %A-80 min [1, 17]: 8.03% and 1.46%
- tail-withdrawal latency, 80 min [1, 17]: 2.4 s and 1.5 s
- %A-90 min [1, 17]: 2.92% and 5.11%
- tail-withdrawal latency, 90 min [1, 17]: 1.7 s and 2 s
- %A-100 min [1, 17]: 0% and 2.92%
- tail-withdrawal latency, 100 min [1, 17]: 1.3 s and 1.7 s
- %A-110 min [1, 17]: 0% and 0.73%
- tail-withdrawal latency, 110 min [1, 17]: 1.3 s and 1.4 s
- antinociception in DOR KO mice vs WT [1, 18]: remained intact
- antinociception in KOR KO mice vs WT [1, 18]: attenuated
- antinociception in MOR KO mice vs WT [1, 18]: attenuated
- EC50 ([2]; EC50 mMOR [35S]GTPγS, ± SEM): 1.3 nM and 1.29 nM
- Emax ([2]; read-out: Emax mMOR [35S]GTPγS): 41 ± 1%
- EC50 ([3]; EC50 cAMP inhibition hDOR): 11.4 nM
- Emax ([3]; HEK-293T, read-out: Emax% cAMP inhibition hDOR): 38 ± 2%
- Ki [4]: 0.39 nM
- EC50 ([5]; EC50 G protein activation (BRET) mMOR): 3.61 nM
- Emax ([5]; HEK-293T, read-out: Emax% G protein activation (BRET) mMOR): 42 ± 2.6%
- Ki [6]: 60.1 nM
- arrestin recruitment at rKOR (in words) [7]: No recruitment of βarrestin-2
- EC50 ([8]; EC50 arrestin recruitment hDOR, Tango): 64.1 nM
- Emax ([8]; HTLA, read-out: Emax% arrestin recruitment hDOR): 34 ± 3.7%
- EC50 ([9]; EC50 arrestin recruitment (Tango) hKOR): 3.97 nM
- Emax ([9]; HTLA, read-out: Emax% arrestin recruitment (Tango) hKOR): 37 ± 2%
